Key:
[1] = system: healthy volunteers; assay: Quantitative EEG profiling
[2] = Plasma PK, 7-day trial BNC210.011; assay type: in vivo, human
[3] = system: healthy volunteers; assay: Peak Saccadic Velocity
[4] = system: mouse and rat behavioral models of anxiety and stress‐related disorders; settings: cited from earlier work
[5] = system: healthy volunteers; assay: Subjective feelings on VAS
[6] = biological target: α7 nAChR (Homo sapiens, UniProt P36544); assay: Nicotine shift assay, qEEG α2 band; assay type: in vivo; settings: 1,000 mg BID; particularly with 2 mg nicotine
α7 nAChR, sequence (P36544 23-502): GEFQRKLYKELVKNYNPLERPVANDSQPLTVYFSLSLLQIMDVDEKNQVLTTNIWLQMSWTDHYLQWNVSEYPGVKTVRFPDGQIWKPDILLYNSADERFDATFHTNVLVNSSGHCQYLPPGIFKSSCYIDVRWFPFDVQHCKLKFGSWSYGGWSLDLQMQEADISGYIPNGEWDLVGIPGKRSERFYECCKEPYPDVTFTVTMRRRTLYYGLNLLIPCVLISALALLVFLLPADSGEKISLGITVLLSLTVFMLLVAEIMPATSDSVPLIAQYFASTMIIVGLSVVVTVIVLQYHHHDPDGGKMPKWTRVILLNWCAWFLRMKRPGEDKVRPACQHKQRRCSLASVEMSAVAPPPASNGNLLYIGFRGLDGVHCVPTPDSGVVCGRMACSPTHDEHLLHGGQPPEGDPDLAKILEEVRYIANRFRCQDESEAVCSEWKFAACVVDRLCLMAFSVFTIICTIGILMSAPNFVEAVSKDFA

[7] = system: healthy volunteers; settings: in vivo
[8] = system: healthy volunteers; assay: Digit Symbol Substitution Test
[9] = system: healthy volunteers; assay: CCK‐4 induced panic model; assay type: in vivo, human; settings: 2000 mg
[10] = system: patients with GAD; settings: cited from earlier work
[11] = suspension taken with food, out‐patient, NCT02933606; cited from earlier work
[12] = system: healthy volunteers; assay: PEPSY psychometric test battery; assay type: in vivo, human; settings: up to 1000 mg BID for 8 days; Day 1 and Day 8
[13] = Urinary excretion of unchanged drug, trial BNC210.001; assay type: in vivo, human; settings: suspension, fasted
[14] = system: healthy volunteers; assay: ARCI 49 abuse liability checklist
[15] = system: healthy volunteers; assay: Karolinska Sleepiness Scale
[16] = Plasma PK, SAD trial BNC210.010; assay type: in vivo, human; settings: 150 mg‐strength tablet, fasted, up to 1200 mg
[17] = system: healthy volunteers; assay: Safety and tolerability, Phase 1 trials; assay type: in vivo, human
[18] = Plasma PK, food effect SAD trial BNC210.002; assay type: in vivo, human; settings: suspension
[19] = Plasma PK, suspension vs 150 mg tablet cross-over trial BNC210.009; assay type: in vivo, human; settings: 300 mg tablet
[20] = Plasma PK, multiple ascending dose trial BNC210.005; assay type: in vivo, human
[21] = Plasma PK, single ascending dose trial BNC210.001; assay type: in vivo, human; settings: suspension, fasted
[22] = system: healthy volunteers; assay: Neuroendocrine biomarkers serum cortisol and ACTH; settings: Phase 1 trials
[23] = system: social anxiety disorder patients; settings: as‐needed acute dosing, NCT05193409; cited from earlier work
[24] = system: patients with PTSD; settings: 12‐week; cited from earlier work
[25] = Phase 1 trials in healthy volunteers, N = 173

CCn1cc(C(=O)N2CCOCC2)c(=O)c2cc(NC3Cc4ccccc4C3)cnc21 [BNC210]
qEEG alpha power ([1]; 300 mg dose only): small decrease in alpha power
qEEG delta activity vs placebo ([1]; 300 and 2000 mg): increased delta EEG activity in the resting condition, but not the Vigilance‐Controlled condition
qEEG delta power ([1]; 300 and 2000 mg): some increase in delta power in the Resting condition only
Overlap of EEG profile with lorazepam ([1]; in vivo): little overlap in EEG profiles
qEEG beta‐3 ([1]; in vivo): only a slight increase
Day from which steady state achieved ([2]; 225 mg‐strength tablet, 900 mg BID): 3 days
Steady state AUC0‐12, tablet 900 mg BID vs suspension 1000 mg BID ([2]; in vivo): double
Peak saccadic velocity vs placebo ([3]; 300 and 2000 mg): did not show any significant effect
Activity in behavioral models of anxiety and stress‐related disorders ([4]; broad therapeutic dosage range): effective
Side effects in rodent models ([4]; preclinical pharmacology and toxicology studies): did not elicit sedation, memory or motor impairment, or physical dependence
Subjective feelings on VAS (16‐item Bond and Lader or eVAS) ([5]; trials BNC210.001, .002, .003, .005, basal state): No effects on subjective feelings
Extent of inhibition of nicotine‐induced α2 band response [6]: partial
Total reaction time vs placebo [7]: no increases in total reaction time
Digit Symbol Substitution Test vs placebo ([8]; 300 mg, 6‐h P < 0.05): no effects with 300 mg, except at the 6‐h time point only
Digit Symbol Substitution Test vs placebo ([8]; 2000 mg): no effects at any time point
eVAS emotional stability vs placebo ([9]; 5 min post CCK‐4 injection, P = 0.104): trend
PSS Sum Intensity score vs placebo ([9]; 10 min post CCK‐4 injection, 15 evaluable responders, P < 0.041): significant reduction
PSS Total Symptom score vs placebo ([9]; 10 min post CCK‐4 injection, 15 evaluable responders, P < 0.048): significant reduction
Threat avoidance behavior and self‐reported anxiety [10]: significantly reduced
Plasma levels, population PK analysis [11]: appreciably lower than expected
Cognition, PEPSY test battery [12]: no overall consistent effect on cognition
Drug excreted unchanged in the urine ([13]; single 5 mg): 13.6 % of the dose administered
Drug excreted unchanged in the urine ([13]; single 2000 mg): 0.6 % of the dose administered
ARCI 49 checklist ([14]; trials BNC210.003, BNC210.004, BNC210.005): No clinically significant feelings associated with any classes of drugs of abuse
Karolinska Sleepiness Scale vs placebo ([15]; 300 and 2000 mg): no increase in sleepiness
Dose proportionality of Cmax and AUC [16]: increased proportionally with dose
TEAE Fatigue [17, 25]: 7 (4.1) n (%)
TEAE Headache [17, 25]: 35 (20.2) n (%)
TEAE Nausea [17, 25]: 8 (4.6) n (%)
TEAE Somnolence [17, 25]: 16 (9.3) n (%)
Dose relationship of CNS TEAEs (headache, somnolence, nausea, fatigue) ([17]; SAD and MAD trials): did not suggest a dose relationship
Serious adverse events ([17]; eight Phase 1 trials): no serious adverse events were reported
Maximum tolerated dose ([17]; up to 2000 mg suspension and 1200 mg tablet): No maximum tolerated dose was found
Increase in AUC with food ([18]; 300 mg, fed vs fasted): 3.5 fold
Increase in Cmax with food ([18]; 300 mg, fed vs fasted): more than doubling
Increase in AUC at 2000 mg over 1200 mg ([18]; fed): 15%
Dose proportionality of exposure ([18]; fed, 600 and 1200 mg): approximately dose‐proportional
Tmax ([19]; fasted): 2 h
Tmax ([19]; fed): 4 h
Dose proportionality of exposures ([20]; suspension BID, increasing dose levels): less than dose‐proportional
Mean steady state AUC0–12 ([20]; suspension, 1000 mg BID (2000 mg/day)): 24900 ng·h/mL
Day steady state achieved ([20]; suspension, 150 and 300 mg BID): 2 days
Day steady state achieved ([20]; suspension, 600 and 1000 mg BID): 6 days
Change in exposure with dose ([21]; beyond 600 mg): no appreciable further increase in exposure
Dose proportionality of AUC and Cmax ([21]; dose levels up to 50 mg): increased approximately dose proportionately
Effect on serum cortisol or ACTH [22]: No consistent effects
Anxiety levels vs placebo [23]: improvements in anxiety levels
PTSD total symptom severity scores, depression, insomnia vs placebo [24]: effective at significantly reducing

O=C1Nc2ccc(Cl)cc2C(c2ccccc2Cl)=NC1O (stereo not shown) [lorazepam, reference compound]
qEEG delta activity vs placebo ([1]; 2 mg): increased delta activity during both the Resting and Vigilance‐Controlled conditions
Peak saccadic velocity (mean maximum) vs placebo ([3]; 2 mg, 6, 9, and 12 h (P < 0.001)): significantly slower
eVAS mood vs placebo ([5]; 2 mg, trial BNC210.003, 6 h time point, P < 0.05): mood‐lowering effect
Total reaction time vs placebo [7]: significantly higher
Digit Symbol Substitution Test vs placebo ([8]; 2 mg, 6‐h (P < 0.001), 9‐hour (P < 0.05)): significant effect
ARCI 49 benzedrine subscale vs placebo ([14]; 2 mg, P = 0.056): tended to score lower
Karolinska Sleepiness Scale vs placebo ([15]; 2 mg, 6‐h (P < 0.001), 9‐h (P < 0.05)): significant increase in the feeling of sleepiness

Source: article PMC12856972 (Clinical Pharmacology in Drug Development, 2025)
